# Results from US12514938B2, “Fibroblast activation protein targeting peptides” (PERSPECTIVE THERAPEUTICS, INC., priority 2023, dated 2026).
# *1 amine or outer side, *2 acyl side, *3 side chain or, on linkers, in order; H or OH if unused. Where a SMILES comes first, the peptide text is derived from it. Bridges are numbered along the chain shown (N, C = ends). [ ]: non-standard residue; d: D form. The star is where a group is joined. X3 = NC(=O)CN1CCN(CC(=O)O)CCN(CC(=O)NCCOCCOCCC(=O)N[C@@H](Cc2ccccc2)C(=O)NC(CC(=O)[*:1])CC(=O)[*:2])CCN(CC(=O)O)CC1; X2 = NC(=O)CN1CCN(CC(=O)O)CCN(CC(=O)NCCOCCOCCC(=O)NCCSCc2cc(C[*:1])cc(C[*:2])c2)CCN(CC(=O)O)CC1; X1 = NC(=O)CN1CCN(CC(=O)O)CCN(CC(=O)*)CCN(CC(=O)O)CC1; 2Nal = N[C@@H](Cc1ccc2ccccc2c1)C(=O)O; mXylylene = c1cc(C[*:1])cc(C[*:2])c1; oXylylene = c1ccc(C[*:2])c(C[*:1])c1; Dap = NC[C@H](N)C(=O)O; PEG2 = NCCOCCOCCC(=O)O
# Target: T1, Human Fibroblast Activation Protein (FAP) (Homo sapiens, UniProt Q12884)
# T1 sequence (Q12884 1-760): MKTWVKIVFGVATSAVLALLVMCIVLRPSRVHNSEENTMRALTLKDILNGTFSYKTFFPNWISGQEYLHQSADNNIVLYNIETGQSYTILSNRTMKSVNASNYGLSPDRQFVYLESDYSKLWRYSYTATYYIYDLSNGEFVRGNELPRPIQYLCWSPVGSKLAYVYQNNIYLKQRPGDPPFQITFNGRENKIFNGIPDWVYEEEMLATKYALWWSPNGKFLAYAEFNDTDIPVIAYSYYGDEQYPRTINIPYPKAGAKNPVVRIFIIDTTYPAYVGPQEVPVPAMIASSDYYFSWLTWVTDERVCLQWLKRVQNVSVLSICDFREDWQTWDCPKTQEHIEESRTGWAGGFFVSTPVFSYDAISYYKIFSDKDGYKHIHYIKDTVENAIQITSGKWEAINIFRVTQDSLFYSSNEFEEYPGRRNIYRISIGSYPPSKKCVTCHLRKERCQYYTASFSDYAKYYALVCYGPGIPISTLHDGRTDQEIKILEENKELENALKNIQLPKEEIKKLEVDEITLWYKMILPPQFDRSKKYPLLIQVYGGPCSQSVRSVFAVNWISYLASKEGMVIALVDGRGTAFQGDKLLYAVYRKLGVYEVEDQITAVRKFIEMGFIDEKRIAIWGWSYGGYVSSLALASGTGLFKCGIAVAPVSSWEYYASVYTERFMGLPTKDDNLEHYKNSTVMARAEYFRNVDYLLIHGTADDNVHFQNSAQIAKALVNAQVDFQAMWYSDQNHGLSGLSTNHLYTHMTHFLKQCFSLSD
# Experiment: Enzyme inhibition assay against human FAP (substrate Z-GP-AMC), Example 1
# Format: biochemical
# Settings: human FAP 5 ng/well, 50 μM Z-GP-AMC; Ki from IC50 by Cheng-Prusoff
# Description: Binding Affinity Against Human Fibroblast Activation Protein (FAP)
# An enzyme inhibition assay was performed to determine IC50 values and then the Cheng-Prusoff equation used to calculate the Ki given a known Km of the substrate Z-GP-AMC for FAP. To perform the assay, FAP (5 ng/well) and the test peptide at varying concentrations (i.e. 10^−6 to 10^−12) were incubated in a black 96-well plate for 10 minutes at RT on a shaker plate. Then, the substrate Z-GP-AMC was added to give a final concentration of 50 μM. The total reaction volume per well was 100 μL The reaction was allowed to incubate at RT on a shaker plate for 1 hour protected from light, and then fluorescence read with a BioTek Synergy LX plate reader at an ex/em (360/40 and 460/40). Experiments were performed in at least duplicate, and controls of buffer only, buffer and FAP enzyme, and buffer with substrate and FAP enzyme only were included for comparison. The buffer used for the assay was 50 mM Tris-HCl, 1M NaCl, and 1 mg/mL BSA, pH=7.5. Data was plotted in GraphPad Prism and non-linear regression used to calculate IC50 values. The compounds tested and Ki values of each were as follows: […]
row,SMILES,Ki
1,"CC(=O)N[C@@H](CO)C(=O)N[C@H]1CSCc2ccccc2CSC[C@@H](C(N)=O)NC(=O)[C@H](Cc2c[nH]c3ccccc23)NC(=O)[C@H](Cc2ccc(O)cc2)NC(=O)[C@H](CCC(N)=O)NC(=O)[C@H](CCC(=O)O)NC(=O)[C@H](Cc2ccccc2)NC(=O)[C@@H]2CCCN2C(=O)[C@H]([C@@H](C)O)NC1=O [VMT-FAP-2-29, Ac-S[C(oXdB)TPFEQYWC]-NH2] (Ac-SCTPFEQYWC-NH2; linker 2-10 via oXylylene)",13.6 nM
2,"CC(=O)N[C@@H](CO)C(=O)N[C@H]1CNC(=O)CC(NC(=O)[C@H](Cc2ccccc2)NC(=O)CCOCCOCCNC(=O)CN2CCN(CC(=O)O)CCN(CC(N)=O)CCN(CC(=O)O)CC2)CC(=O)NC[C@@H](C(N)=O)NC(=O)[C@H](Cc2c[nH]c3ccccc23)NC(=O)[C@H](Cc2c[nH]c3ccccc23)NC(=O)[C@H](CCC(N)=O)NC(=O)[C@H](CCC(=O)O)NC(=O)[C@H](Cc2ccccc2)NC(=O)[C@@H]2CCCN2C(=O)[C@H]([C@@H](C)O)NC1=O (stereo partly drawn) [VMT-FAP-2-33, Ac-S-[Dap(bGlu(F-PEG2-PSC))TPFEQWWDap]-NH2] (Ac-S[Dap]TPFEQWW[Dap]-NH2; linker 2-10 via X3 (inferred))",1.26 nM
3,"C[C@@H](O)[C@@H]1NC(=O)[C@@H](NC(=O)CCOCCOCCNC(=O)CN2CCN(CC(=O)O)CCN(CC(N)=O)CCN(CC(=O)O)CC2)CSCc2ccccc2CSC[C@@H](C(N)=O)NC(=O)[C@H](Cc2c[nH]c3ccccc23)NC(=O)[C@H](Cc2c[nH]c3ccccc23)NC(=O)[C@H](CCC(N)=O)NC(=O)[C@H](CCC(=O)O)NC(=O)[C@H](Cc2ccccc2)NC(=O)[C@@H]2CCCN2C1=O [VMT-FAP-2-36, PSC-PEG2-[C(oXdB)TPFEQWWC]-NH2] ({X1-PEG2}-CTPFEQWWC-NH2; linker 1-9 via oXylylene)",0.76 nM
4,"C[C@@H](O)[C@@H]1NC(=O)[C@@H](NC(=O)[C@H](CO)NC(=O)[C@H](Cc2ccccc2)NC(=O)CCOCCOCCNC(=O)CN2CCN(CC(=O)O)CCN(CC(N)=O)CCN(CC(=O)O)CC2)CSCc2ccccc2CSC[C@@H](C(N)=O)NC(=O)[C@H](Cc2c[nH]c3ccccc23)NC(=O)[C@H](Cc2c[nH]c3ccccc23)NC(=O)[C@H](CCC(N)=O)NC(=O)[C@H](CCC(=O)O)NC(=O)[C@H](Cc2ccccc2)NC(=O)[C@@H]2CCCN2C1=O [VMT-FAP-2-39, PSC-PEG2-F-S-[C(oXdB)TPFEQWWC]-NH2] ({X1-PEG2}-FSCTPFEQWWC-NH2; linker 3-11 via oXylylene)",0.67 nM
5,"CC(=O)N[C@H]1CSCc2ccccc2CSC[C@@H](C(N)=O)NC(=O)[C@H](Cc2c[nH]c3ccccc23)NC(=O)[C@H](Cc2c[nH]c3ccccc23)NC(=O)[C@H](CCC(N)=O)NC(=O)[C@H](CCC(=O)O)NC(=O)[C@H](Cc2ccccc2)NC(=O)[C@@H]2CCCN2C(=O)[C@H]([C@@H](C)O)NC1=O [VMT-FAP-2-40, Ac-[C(oXdB)TPFEQWWC]-NH2] (Ac-CTPFEQWWC-NH2; linker 1-9 via oXylylene)",1.27 nM
6,"C[C@@H](O)[C@@H]1NC(=O)[C@@H](NC(=O)[C@H](CO)NC(=O)CCOCCOCCNC(=O)CN2CCN(CC(=O)O)CCN(CC(N)=O)CCN(CC(=O)O)CC2)CSCc2cccc(c2)CSC[C@@H](C(N)=O)NC(=O)[C@H](Cc2c[nH]c3ccccc23)NC(=O)[C@H](Cc2c[nH]c3ccccc23)NC(=O)[C@H](CCC(N)=O)NC(=O)[C@H](CCC(=O)O)NC(=O)[C@H](Cc2c[nH]c3ccccc23)NC(=O)[C@@H]2CCCN2C1=O [VMT-FAP-2-48, PSC-PEG2-S-[C(mXdB)TPWEQWWC]-NH2] ({X1-PEG2}-SCTPWEQWWC-NH2; linker 2-10 via mXylylene)",0.35 nM
7,"CC(=O)N[C@@H](CO)C(=O)N[C@H]1CSCc2cc(CSCCNC(=O)CCOCCOCCNC(=O)CN3CCN(CC(=O)O)CCN(CC(N)=O)CCN(CC(=O)O)CC3)cc(c2)CSC[C@@H](C(N)=O)NC(=O)[C@H](Cc2c[nH]c3ccccc23)NC(=O)[C@H](Cc2c[nH]c3ccccc23)NC(=O)[C@H](CCC(N)=O)NC(=O)[C@H](CCC(=O)O)NC(=O)[C@H](Cc2c[nH]c3ccccc23)NC(=O)[C@@H]2CCCN2C(=O)[C@H]([C@@H](C)O)NC1=O [VMT-FAP-2-55, Ac-S-[C(mXtB(CA-PEG2-PSC))TPWEQWWC]-NH2] (Ac-SCTPWEQWWC-NH2; linker 2-10 via X2)",1.12 nM

# More lines, in order of falling Ki, values ahead:
row,Ki,SMILES
1,0.34 nM,"C[C@@H](O)[C@@H]1NC(=O)[C@@H](NC(=O)[C@H](CO)NC(=O)CCOCCOCCNC(=O)CN2CCN(CC(=O)O)CCN(CC(N)=O)CCN(CC(=O)O)CC2)CSCc2ccccc2CSC[C@@H](C(N)=O)NC(=O)[C@H](Cc2c[nH]c3ccccc23)NC(=O)[C@H](Cc2c[nH]c3ccccc23)NC(=O)[C@H](CCC(N)=O)NC(=O)[C@H](CCC(=O)O)NC(=O)[C@H](Cc2ccc3ccccc3c2)NC(=O)[C@@H]2CCCN2C1=O [VMT-FAP-2-53, PSC-PEG2-[SC(oXdB)TP2-NalEQWWC]-NH2] ({X1-PEG2}-SCTP[2Nal]EQWWC-NH2; linker 2-10 via oXylylene)"
2,0.29 nM,"C[C@@H](O)[C@@H]1NC(=O)[C@@H](NC(=O)[C@H](CO)NC(=O)CCOCCOCCNC(=O)CN2CCN(CC(=O)O)CCN(CC(N)=O)CCN(CC(=O)O)CC2)CSCc2ccccc2CSC[C@@H](C(N)=O)NC(=O)[C@H](Cc2c[nH]c3ccccc23)NC(=O)[C@H](Cc2c[nH]c3ccccc23)NC(=O)[C@H](CCC(N)=O)NC(=O)[C@H](CCC(=O)O)NC(=O)[C@H](Cc2c[nH]c3ccccc23)NC(=O)[C@@H]2CCCN2C1=O [VMT-FAP-2-42, PSC-PEG2-S-[C(oXdB)TPWEQWWC]-NH2] ({X1-PEG2}-SCTPWEQWWC-NH2; linker 2-10 via oXylylene)"
3,0.28 nM,"CC(=O)N[C@H]1CSCc2cc(CSCCNC(=O)CCOCCOCCNC(=O)CN3CCN(CC(=O)O)CCN(CC(N)=O)CCN(CC(=O)O)CC3)cc(c2)CSC[C@@H](C(N)=O)NC(=O)[C@H](Cc2c[nH]c3ccccc23)NC(=O)[C@H](Cc2c[nH]c3ccccc23)NC(=O)[C@H](CCC(N)=O)NC(=O)[C@H](CCC(=O)O)NC(=O)[C@H](Cc2c[nH]c3ccccc23)NC(=O)[C@@H]2CCCN2C(=O)[C@H]([C@@H](C)O)NC1=O [VMT-FAP-2-51, Ac-[C(mXtB(CA-PEG2-PSC))TPWEQWWC]-NH2] (Ac-CTPWEQWWC-NH2; linker 1-9 via X2)"
4,0.19 nM,"C[C@@H](O)[C@@H]1NC(=O)[C@@H](NC(=O)[C@H](CC(=O)O)NC(=O)CCOCCOCCNC(=O)CN2CCN(CC(=O)O)CCN(CC(N)=O)CCN(CC(=O)O)CC2)CSCc2ccccc2CSC[C@@H](C(N)=O)NC(=O)[C@H](Cc2c[nH]c3ccccc23)NC(=O)[C@H](Cc2c[nH]c3ccccc23)NC(=O)[C@H](CCC(N)=O)NC(=O)[C@H](CCC(=O)O)NC(=O)[C@H](Cc2ccccc2)NC(=O)[C@@H]2CCCN2C1=O [VMT-FAP-2-41, PSC-PEG2-D-[C(oXdB)TPFEQWWC]-NH2] ({X1-PEG2}-DCTPFEQWWC-NH2; linker 2-10 via oXylylene)"
5,0.07 nM,"C[C@@H](O)[C@@H]1NC(=O)[C@@H](NC(=O)[C@H](CO)NC(=O)CCOCCOCCNC(=O)CN2CCN(CC(=O)O)CCN(CC(N)=O)CCN(CC(=O)O)CC2)CSCc2ccccc2CSC[C@@H](C(N)=O)NC(=O)[C@H](Cc2c[nH]c3ccccc23)NC(=O)[C@H](Cc2c[nH]c3ccccc23)NC(=O)[C@H](CCC(=O)O)NC(=O)[C@H](CCC(=O)O)NC(=O)[C@H](Cc2ccccc2)NC(=O)[C@@H]2CCCN2C1=O [VMT-FAP-2-43, PSC-PEG2-S-[C(oXdB)TPFEEWWC]-NH2] ({X1-PEG2}-SCTPFEEWWC-NH2; linker 2-10 via oXylylene)"
6,0.04 nM,"C[C@@H](O)[C@@H]1NC(=O)[C@@H](NC(=O)[C@H](CO)NC(=O)CCOCCOCCNC(=O)CN2CCN(CC(=O)O)CCN(CC(N)=O)CCN(CC(=O)O)CC2)CSCc2ccccc2CSC[C@@H](C(N)=O)NC(=O)[C@H](Cc2c[nH]c3ccccc23)NC(=O)[C@H](Cc2c[nH]c3ccccc23)NC(=O)[C@H](CCC(N)=O)NC(=O)[C@H](CCC(=O)O)NC(=O)[C@H](Cc2ccccc2)NC(=O)[C@@H]2CCCN2C1=O [VMT-FAP-2-30, PSC-PEG2-S-[C(oXdB)TPFEQWWC]-NH2] ({X1-PEG2}-SCTPFEQWWC-NH2; linker 2-10 via oXylylene)"
